Source: article PMC11767309 (Molecules, 2025)

Columns and labels:
[1] = biological target: T1, butyrylcholinesterase (BChE) (Equus caballus, UniProt P81908); experiment: biochemical; design: species or system equine; settings: for IC50: BChE IC50 (μM)
T1 construct: butyrylcholinesterase (BChE, E.C. from equine serum); purchased Sigma Aldrich (St. Louis, MO, USA); host or cells: equine serum

[2] = biological target: T2, acetylcholinesterase (AChE) (Electrophorus electricus, UniProt O42275); experiment: biochemical; design: species or system electric eel; settings: read-out: AChE Inhibition (%)
T2 construct: purchased Sigma Aldrich (St. Louis, MO, USA)
T2 sequence (O42275 24-633): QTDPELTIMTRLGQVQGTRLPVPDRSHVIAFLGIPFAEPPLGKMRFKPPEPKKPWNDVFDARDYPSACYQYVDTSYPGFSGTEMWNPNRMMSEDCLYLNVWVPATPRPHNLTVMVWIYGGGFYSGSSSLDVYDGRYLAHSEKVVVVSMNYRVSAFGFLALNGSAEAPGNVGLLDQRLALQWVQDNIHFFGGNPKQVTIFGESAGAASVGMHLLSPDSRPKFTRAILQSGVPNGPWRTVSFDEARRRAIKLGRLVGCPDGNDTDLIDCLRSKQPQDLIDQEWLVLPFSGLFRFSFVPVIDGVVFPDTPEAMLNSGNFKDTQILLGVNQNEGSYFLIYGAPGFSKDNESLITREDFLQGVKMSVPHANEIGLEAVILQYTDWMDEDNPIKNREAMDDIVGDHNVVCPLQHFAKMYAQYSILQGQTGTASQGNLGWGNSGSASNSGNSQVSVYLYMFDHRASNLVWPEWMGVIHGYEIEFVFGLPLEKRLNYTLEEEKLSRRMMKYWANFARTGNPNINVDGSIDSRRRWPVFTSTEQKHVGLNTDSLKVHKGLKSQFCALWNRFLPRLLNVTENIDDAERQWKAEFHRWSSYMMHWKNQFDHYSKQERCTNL

[3] = Complex formation with Fe^3+, spectrophotometric titration; format: physicochemical; settings: for Molar absorptivities at the longer-wavelength band maxima, ε: free ligand; for absorbance vs. ligand concentration plot: titration at constant Fe(III) content; for absorptivity of the complex higher than that of the ligand / molar absorptivity of the complex formed: complex with Fe^3+; for molar absorptivity of the complex formed: slope of absorbance vs. ligand concentration plot
Procedure: For this purpose, the following compounds were selected: 1, 3, 6 and 7. The Fe^3+ ions strongly hydrolyze, decreasing the pH of the aqueous system; thus, acidic solutions were used to study the possible complex formation via spectrophotometric titrations.
The absorption spectra used to determine the molar absorptivity and to evaluate the complex formation constant were recorded with a Specord S600 spectrophotometer (Analytic Jena GmbH, Jena, Germany) in the 190–900 nm wavelength range. During the titration, the ligand concentration was increased at a constant Fe(III) content.

BChE = settings: selectivity BChE over AChE; cited from earlier work

T1 sequence (P81908 whole entry): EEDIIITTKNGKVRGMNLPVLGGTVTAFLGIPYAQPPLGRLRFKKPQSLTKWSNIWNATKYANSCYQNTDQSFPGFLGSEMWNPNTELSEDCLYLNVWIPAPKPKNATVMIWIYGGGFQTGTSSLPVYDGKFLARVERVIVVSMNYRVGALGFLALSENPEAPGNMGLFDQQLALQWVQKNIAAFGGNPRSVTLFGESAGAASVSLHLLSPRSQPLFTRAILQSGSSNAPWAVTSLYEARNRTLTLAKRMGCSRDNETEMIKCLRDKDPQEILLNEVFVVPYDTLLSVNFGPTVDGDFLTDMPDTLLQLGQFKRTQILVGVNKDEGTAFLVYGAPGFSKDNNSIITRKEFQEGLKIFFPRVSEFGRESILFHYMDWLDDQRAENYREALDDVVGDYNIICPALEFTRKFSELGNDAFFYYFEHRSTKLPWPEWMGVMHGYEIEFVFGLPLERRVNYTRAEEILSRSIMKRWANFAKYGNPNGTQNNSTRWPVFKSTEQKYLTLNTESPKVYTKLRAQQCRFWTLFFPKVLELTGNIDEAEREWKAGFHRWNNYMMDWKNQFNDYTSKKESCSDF

Compound | IC50 [1] [µM] | inhibition at 100 µM ([1]; read-out: BChE Inhibition (%)) [%] | inhibition at 100 µM [2] [%] | further results
Cc1ccc(/C=C/c2cc(F)ccc2OC(=O)N(C)C)s1 [Compound 9, (E)-4-fluoro-2-(2-(5-methylthiophen-2-yl)vinyl)phenyl dimethylcarbamate] | 15 ± 2.32 | 85.2 | 23.6 | –
Cc1cnc(/C=C/c2cc(F)ccc2OC(=O)N(C)C)s1 [Compound 12, (E)-4-fluoro-2-(2-(5-methylthiazol-2-yl)vinyl)phenyl dimethylcarbamate] | 23.4 ± 2.43 | 81.4 | 23.9 | –
Cc1ccc(/C=C/c2cc(Cl)ccc2OC(=O)N(C)C)s1 [Compound 10, (E)-4-chloro-2-(2-(5-methylthiophen-2-yl)vinyl)phenyl dimethylcarbamate] | 23.2 ± 3.78 | 85.7 | 27 | –
CN(C)C(=O)Oc1ccccc1/C=C/c1cccs1 [Compound 1, (E)-2-(2-(thiophen-2-yl)vinyl)phenyl dimethylcarbamate] | 0.12 ± 0.09 | – | 30 | Molar absorptivities at the longer-wavelength band maxima, ε [3]: 22,570 M^–1cm^–1; absorbance vs. ligand concentration plot [3]: no deviation from the straight line; inhibition at 50 µM ([1]; read-out: BChE Inhibition (%)): 85%
COc1ccc(/C=C/c2cccs2)c(OC(=O)N(C)C)c1 [Compound 6, (E)-5-methoxy-2-(2-(thiophen-2-yl)vinyl)phenyl dimethylcarbamate] | 0.9 ± 0.14 | – | 1 | absorptivity of the complex higher than that of the ligand [3]: ca. 64%; molar absorptivity of the complex formed [3]: about 26,700 M^−1 cm^−1; Molar absorptivities at the longer-wavelength band maxima, ε [3]: 16,330 M^–1cm^–1; inhibition at 25 µM ([1]; read-out: BChE Inhibition (%)): 84.4%
Cc1cnc(/C=C/c2cc(Cl)ccc2OC(=O)N(C)C)s1 [Compound 13, (E)-4-chloro-2-(2-(5-methylthiazol-2-yl)vinyl)phenyl dimethylcarbamate] | 3.77 ± 0.13 | – | 37.5 | inhibition at 50 µM ([1]; read-out: BChE Inhibition (%)): 84.1%
CN(C)C(=O)Oc1cccc(/C=C/c2cccs2)c1 [Compound 11, (E)-3-(2-(thiophen-2-yl)vinyl)phenyl dimethylcarbamate] | 11.4 ± 2.48 | 83.4 | 19 | –
Cc1ccc(OC(=O)N(C)C)c(/C=C/c2cccs2)c1 [Compound 2, (E)-4-methyl-2-(2-(thiophen-2-yl)vinyl)phenyl dimethylcarbamate] | 1.05 ± 0.09 | – | 16.7 | inhibition at 10 µM ([1]; read-out: BChE Inhibition (%)): 85%
CN(C)C(=O)Oc1ccc(Cl)cc1/C=C/c1cccs1 [Compound 4, (E)-4-chloro-2-(2-(thiophen-2-yl)vinyl)phenyl dimethylcarbamate] | 2.83 ± 0.03 | – | 35 | inhibition at 25 µM ([1]; read-out: BChE Inhibition (%)): 85.3%
CN(C)C(=O)Oc1ccc(F)cc1/C=C/c1cccs1 [Compound 3, (E)-4-fluoro-2-(2-(thiophen-2-yl)vinyl)phenyl dimethylcarbamate] | 1.48 ± 0.36 | 85 | 12.6 | absorptivity of the complex higher than that of the ligand [3]: about 26%; molar absorptivity of the complex formed [3]: 13,200 M^−1 cm^−1; Molar absorptivities at the longer-wavelength band maxima, ε [3]: 10,440 M^–1cm^–1
Cc1ccc(OC(=O)N(C)C)c(/C=C/c2ccc(C)s2)c1 [Compound 8, (E)-4-methyl-2-(2-(5-methylthiophen-2-yl)vinyl)phenyl dimethylcarbamate] | 25.5 ± 0.21 | 72.5 | 25.2 | –
cymserine | – | – | – | more effective as a BChE inhibitor compared to AChE (BChE): 15 times
Cc1ccc(/C=C/c2ccccc2OC(=O)N(C)C)s1 [Compound 7, (E)-2-(2-(5-methylthiophen-2-yl)vinyl)phenyl dimethylcarbamate] | 0.38 ± 0.01 | – | 17.7 | Molar absorptivities at the longer-wavelength band maxima, ε [3]: 19,410 M^–1cm^–1; absorbance vs. ligand concentration plot [3]: no deviation from the straight line; inhibition at 25 µM ([1]; read-out: BChE Inhibition (%)): 86.3%
COc1ccc(OC(=O)N(C)C)c(/C=C/c2cccs2)c1 [Compound 5, (E)-4-methoxy-2-(2-(thiophen-2-yl)vinyl)phenyl dimethylcarbamate] | 11.6 ± 0.18 | 84 | 11 | –
